The source of these data is PMC8430323, “Microbial Enzymatic Synthesis of Amikacin Analogs With Antibacterial Activity Against Multidrug-Resistant Pathogens” (Frontiers in Microbiology, 2021).

In one assay the target is T1, AAC(6′)-APH(2^″) (Staphylococcus aureus, UniProt P0A0C1).
T1 construct: gene aacA-aphD; codon-optimized synthetic gene in pET15b, His-tagged, expressed in E. coli BL21(DE3), Ni-NTA purified; bifunctional enzyme
The assay can be described thus: UPLC-qTOF-HR-MS of […]'-N-acylation product, structure confirmed by NMR. In kind it is biochemical. Particulars: acyl donor; one-pot with GenN, amikacin 2 mM, SAM 2 mM, 50 mM Tris-HCl pH 7.5, 30 °C, 12 h, enzyme 500 μM.

A further assay deals with T2, GenN (Micromonospora echinospora, UniProt Q2MG72).
T2 construct: codon-optimized synthetic gene in pJExpress404, His-tagged, expressed in E. coli BL21(DE3), Ni-NTA purified
T2 sequence (Q2MG72 1-321): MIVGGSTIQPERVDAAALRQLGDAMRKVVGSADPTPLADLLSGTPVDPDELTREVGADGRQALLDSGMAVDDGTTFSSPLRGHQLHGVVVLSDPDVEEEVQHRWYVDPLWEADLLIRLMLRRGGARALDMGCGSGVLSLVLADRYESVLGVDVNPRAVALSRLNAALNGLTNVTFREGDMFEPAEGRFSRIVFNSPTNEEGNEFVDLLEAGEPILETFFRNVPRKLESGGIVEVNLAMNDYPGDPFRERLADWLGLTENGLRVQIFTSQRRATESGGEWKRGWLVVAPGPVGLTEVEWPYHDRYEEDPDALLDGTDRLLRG
Briefly: UPLC-qTOF-HR-MS of methylation product, structure confirmed by NMR. The class given is biochemical. Particulars: SAM 2 mM, amikacin 2 mM, 50 mM Tris-HCl pH 7.5, 30 °C, 12 h, enzyme 500 μM.

T1 sequence (P0A0C1 whole entry): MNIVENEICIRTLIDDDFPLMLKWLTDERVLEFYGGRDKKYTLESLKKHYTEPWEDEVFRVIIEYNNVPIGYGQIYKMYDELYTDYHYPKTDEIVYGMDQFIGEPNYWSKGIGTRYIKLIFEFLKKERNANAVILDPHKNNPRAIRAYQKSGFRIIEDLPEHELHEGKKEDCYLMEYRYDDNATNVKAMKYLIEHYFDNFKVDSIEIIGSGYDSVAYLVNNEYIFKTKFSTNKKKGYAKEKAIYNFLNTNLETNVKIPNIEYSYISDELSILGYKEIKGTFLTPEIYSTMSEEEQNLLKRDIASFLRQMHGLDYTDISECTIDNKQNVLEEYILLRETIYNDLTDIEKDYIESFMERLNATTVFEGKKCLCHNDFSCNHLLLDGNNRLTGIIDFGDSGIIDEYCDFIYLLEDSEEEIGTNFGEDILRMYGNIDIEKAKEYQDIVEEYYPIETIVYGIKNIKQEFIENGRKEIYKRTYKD

On to `CCC(=O)SCCNC(=O)CCNC(=O)[C@H](O)C(C)(C)COP(=O)(O)OP(=O)(O)OC[C@H]1O[C@@H](n2cnc3c(N)ncnc32)[C@H](O)[C@@H]1OP(=O)(O)O` [propionyl-CoA], for which, at AAC(6′)-APH(2^″), the conversion yield result is “Incubation with acetyl-CoA and propionyl-CoA as cosubstrates led to the formation of new UPLC peaks”.

Regarding `NCC[C@H](O)C(=O)N[C@@H]1C[C@H](N)[C@@H](O[C@H]2O[C@H](CN)[C@@H](O)[C@H](O)[C@H]2O)[C@H](O)[C@H]1O[C@H]1O[C@H](CO)[C@@H](O)[C@H](N)[C@H]1O` [amikacin], the conversion yield entry on GenN is “Amikacin was an excellent substrate for SAM-dependent methylation by GenN”. Take `CC(=O)SCCNC(=O)CCNC(=O)[C@H](O)C(C)(C)COP(=O)(O)OP(=O)(O)OC[C@H]1O[C@@H](n2cnc3c(N)ncnc32)[C@H](O)[C@@H]1OP(=O)(O)O` [acetyl-CoA]: the conversion yield entry on AAC(6′)-APH(2^″) was “Incubation with acetyl-CoA and propionyl-CoA as cosubstrates led to the formation of new UPLC peaks”.
